EC50 data for six compounds are collected here from US20100184815A1 (priority 2008, published 2010).

Experiment [1] has as its target T1, Full Length hPPARγ (Homo sapiens, UniProt P37231).
T1 construct: Full Length; expressed in transfected cells; host or cells: Cos cells
T1 sequence (P37231 1-505): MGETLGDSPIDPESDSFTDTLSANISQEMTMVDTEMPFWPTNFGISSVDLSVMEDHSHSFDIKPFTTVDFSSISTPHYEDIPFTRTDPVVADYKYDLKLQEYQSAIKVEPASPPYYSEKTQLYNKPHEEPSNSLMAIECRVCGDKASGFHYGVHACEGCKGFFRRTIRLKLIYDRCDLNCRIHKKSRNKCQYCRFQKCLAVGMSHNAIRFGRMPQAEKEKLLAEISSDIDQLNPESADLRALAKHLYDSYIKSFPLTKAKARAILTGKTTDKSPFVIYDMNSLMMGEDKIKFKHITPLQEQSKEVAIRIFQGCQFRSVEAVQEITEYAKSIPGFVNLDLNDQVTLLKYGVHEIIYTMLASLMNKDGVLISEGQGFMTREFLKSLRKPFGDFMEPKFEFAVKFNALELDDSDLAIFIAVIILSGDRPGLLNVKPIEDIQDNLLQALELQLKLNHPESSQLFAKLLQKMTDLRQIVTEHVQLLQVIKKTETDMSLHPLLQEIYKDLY
The experiment is described as follows: Full length hPPARγ transfection assay. Particulars: full length receptor; scale 1-5; read-out: Full Length hPPAR γ EC50 (scaled number). The experiment is classed as cell-based. On the procedure:
(§1) Transient transfection assays. Cos cells were seeded in 60-mm dishes at a density of 5.5×10^5 cells/dish in Dulbecco's modified Eagle's medium (DMEM) supplemented with 10% fetal calf serum (FCS) and incubated at 37° C. for 24 hours before transfection. Cells were transfected in Opti-MEM (Gibco; Invitrogen, Carlsbad, Calif.) without FCS for 3 hours at 37° C., using polyethylenimine, with reporter and expression plasmids. The plasmid pBluescript (Stratagene, La Jolla, Calif.) was used as carrier DNA to set the final amount of DNA to 5.5 μg/dish. The pCMV-b-galactosidase expression plasmid was cotransfected as a control for transfection efficiency. Transfection was stopped by the addition of DMEM supplemented with 10% FCS, and cells were then incubated at 37° C. After 16 hours, cells were trypsinized and seeded in 96-well plates at the density of 2×10^4 cells/well and incubated for 6 hours in 10% FCS-containing DMEM. Cells were then incubated for 24 hours in DMEM containing 0.2% FCS and increasing concentrations of the compound tested or vehicle (DMSO). At the end of the experiment, cells were washed once with ice-cold PBS, lysed and the luciferase and b-galactosidase assays were performed in a luminometer and spectrophotomer. Transfection efficiencies were normalized with the b-galactosidase activity assay. Half-maximal effective concentration (EC50) was estimated using Prism software (GraphPad). All transfection experiments were performed at least three times.
(§2) In the following tables, proprietary compound EC50 values for hPPAR α, β, δ and γ are shown. The EC50 value is the concentration of a drug that induces a response halfway between the baseline and maximum, and is commonly used as a measure of drug potency. EC50 values are reported on a scale of 1 through 5, wherein the value scale is defined for each receptor as follows: […]

Experiment [2] deals with T2, Full Length hPPARβ/δ (Homo sapiens, UniProt Q03181).
T2 construct: Full Length; expressed in transfected cells; host or cells: Cos cells
T2 sequence (Q03181 1-441): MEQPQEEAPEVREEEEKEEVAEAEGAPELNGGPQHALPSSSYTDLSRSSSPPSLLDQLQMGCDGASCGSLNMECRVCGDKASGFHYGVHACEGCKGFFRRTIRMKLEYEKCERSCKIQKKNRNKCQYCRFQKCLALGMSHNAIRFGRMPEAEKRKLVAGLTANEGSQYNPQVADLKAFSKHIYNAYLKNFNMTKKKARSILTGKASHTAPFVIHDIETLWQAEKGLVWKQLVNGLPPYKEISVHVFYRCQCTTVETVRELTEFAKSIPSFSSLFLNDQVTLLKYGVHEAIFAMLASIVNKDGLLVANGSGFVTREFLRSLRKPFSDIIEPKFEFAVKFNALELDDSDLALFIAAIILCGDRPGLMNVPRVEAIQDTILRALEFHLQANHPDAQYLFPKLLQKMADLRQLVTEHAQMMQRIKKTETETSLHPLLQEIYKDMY
The experiment is described as follows: Full length hPPARβ/δ transfection assay. The class given is cell-based. Particulars: full length receptor; scale 1-5; read-out: Full Length hPPAR β/δ EC50 (scaled number). On the procedure: as §1, §2

In the case of `CCCCCCCn1c(COC(=O)c2ccc(SC(C)(C)C(=O)O)cc2)nn(Cc2ccc(C(C)(C)C)cc2)c1=O` [Compound 189, 2-(4-(((1-(4-tert-butylbenzyl)-4-heptyl-5-oxo-4,5-dihydro-1H-1,2,4-triazol-3-yl)methoxy)carbonyl)phenylthio)-2-methylpropanoic acid], in experiment [1], the EC50 lay within 51 to 200 nM.

For `CCCCCCCn1c(COC(=O)c2ccc(SC(C)(C)C(=O)O)cc2)nn(Cc2ccc(C)cc2)c1=O` [Compound 191, 2-(4-(((4-heptyl-1-(4-methylbenzyl)-5-oxo-4,5-dihydro-1H-1,2,4-triazol-3-yl)methoxy)carbonyl)phenylthio)-2-methylpropanoic acid], the EC50 in experiment [1] and in experiment [2] was 51 to 200 nM each time. Turning to `CCCCCCn1c(COC(=O)c2ccc(SC(C)(C)C(=O)O)cc2)nn(Cc2ccc(C(C)(C)C)cc2)c1=O` [Compound 187, 2-(4-(((1-(4-tert-butylbenzyl)-4-hexyl-5-oxo-4,5-dihydro-1H-1,2,4-triazol-3-yl)methoxy)carbonyl)phenylthio)-2-methylpropanoic acid], in experiment [1], the EC50 fell in the range of 51 to 200 nM. Regarding `CCCCCCn1c(COC(=O)c2ccc(SC(C)(C)C(=O)O)cc2)nn(Cc2ccc(C)cc2)c1=O` [Compound 160, 2-(4-(((4-hexyl-1-(4-methylbenzyl)-5-oxo-4,5-dihydro-1H-1,2,4-triazol-3-yl)methoxy)carbonyl)phenylthio)-2-methylpropanoic acid], the EC50 in experiment [1] and in experiment [2] was 201 to 999 nM each time. `CCCCCCCCn1c(COC(=O)c2ccc(OC(C)(C)C(=O)O)c(OC)c2)nn(Cc2ccc(C)cc2)c1=O` [Compound 186, 2-(2-methoxy-4-(((1-(4-methylbenzyl)-4-octyl-5-oxo-4,5-dihydro-1H-1,2,4-triazol-3-yl)methoxy)carbonyl)phenoxy)-2-methylpropanoic acid]: the EC50 in experiment [1] lay in the range of 51 to 200 nM. In the case of `CCCCCCCCn1c(COC(=O)c2ccc(SC(C)(C)C(=O)O)cc2)nn(Cc2ccc(C)cc2)c1=O` [Compound 161, 2-methyl-2-(4-(((1-(4-methylbenzyl)-4-octyl-5-oxo-4,5-dihydro-1H-1,2,4-triazol-3-yl)methoxy)carbonyl)phenylthio)propanoic acid], the EC50 in experiment [1] and in experiment [2] was 201 to 999 nM in each case.
